Test results from patent publication US7615554B2, “Erastin and erastin binding proteins, and uses thereof” (Prolexys Pharmaceuticals, Inc., priority 2005, dated 2009).

What was measured:
engineered cell lines = test: Selectivity across the engineered cell lines (calcein AM IC50 ratios); assay type: cell-based, human; settings: from selectivity ratio for each subsequent pair of cell lines in a series
Procedure: To calculate this selectivity score between two cell lines, the IC50 for a compound in one cell line was divided by the IC50 for the same compound in a second cell line. […] The “tumor selectivity score” was calculated for each compound, by dividing the IC50 value for the compound in the parental, primary BJ cells by the IC50 value for the compound in engineered BJ-TERTALT/ST/RAS^V12 cells, containing all four genetic elements required to create tumorigenic cells (Table 1).
Applicants sought to determine the genetic basis of selectivity for each compound. That is, for each compound, they attempted to define the gene or combination of genes responsible for rendering cells sensitive to the compound (Table 1).
The IC50 in primary BJ cells was divided by the IC50 in BJ-TERT/LT/ST/RAS^V12 tumorigenic cells to obtain a tumor selectivity ratio for each compound. The compound selectivity for each genetic element was determined by calculating the selectivity ratio for each subsequent pair of cell lines in a series.

HT-1080 xenografts = test: HT-1080 tumor treatment study; assay type: in vivo, mouse; settings: nude Balb/c mice; 100 or 50 mg/Kg, QD×5 days, IP
Procedure: Nude Balb/c (Nu/Nu strain, Charles River Laboratories), female, 5-6 week old (˜20 g average body weight).
Both compounds were formulated in an identical manner. For the 100 mg/kg dose level, each compound was delivered at a concentration of 10.0 mg/ml, in an injection volume of 0.2 ml. For the 50 mg/kg dose level, each compound was delivered at a concentration of 5.0 mg/ml, in an injection volume of 0.2 ml. For both dose levels, the vehicle contained 0.025% Tween-80, 0.01% benzyl alcohol, 35 mM acetic acid (HOAc), 100 mM potassium phosphate-buffer, and 32 mM sucrose, pH=6.5.
• A: PRLX compound 6 @ 100 mg/Kg, QD×5 days, IP, n=8 • B: PRLX compound 6 @ 50 mg/Kg, QD×5 days, IP, n=8 • C: PRLX compound 5 @ 100 mg/Kg, QD×5 days, IP, n=8 • D: PRLX compound 5 @ 50 mg/Kg, QD×5 days, IP, n=8 • E: Vehicle Control, QD×5 days, IP, n=8 • F: Untreated Control, n=8 Treatment Schedule:
Beginning when the mean tumor volume reached ˜200 mm^3, and continuing through day 5, every day, each animal was administered a single IP injection of one of the above treatments, for a total of 5 doses. […]
Starting on Day 1, all animals were weighed, and tumor dimensions (length (L) and width (W)) were measured, every other day. […]
The resulting tumor volume values were averaged for each study group for each time point, and were then plotted against time. Variance was expressed as standard error of the mean (±SEM).

PANC-1 xenografts = test: PANC-1 tumor treatment study; assay type: in vivo; settings: immunodeficient nude mouse; once a day for five consecutive days
Procedure: The experimental plan for the PANC-1 study was essentially identical to that of the HT-1080 study outlined above in Example 10 with the following exceptions: approximately 30-40 mg fragment of passaged PANC-1 tumor tissue was implanted subcutaneously in the right flank of an immunodeficient nude mouse. Tumor growth was monitored daily and when the tumors reached approximately 100 mm^3, animals harboring similarly sized tumors were group matched and compound dosing was initiated. Administration of compound 5 occurred once a day for five consecutive days at the doses listed below. In the PANC-1 xenografts, gemcitabine, administered at the maximum tolerated dose for the model, was used as a control. The gemcitabine regimen was 180 mg/kg […] on every third day over a period of 9 days.

[1] = tested on: BJ-TERT/LT/ST/RAS^V12 tumorigenic cells; test: Calcein AM viability assay, BJ-TERT/LT/ST/RAS^V12 cells; assay type: cell-based, human
Source text: Described here is work carried out to identify compounds with increased potency or activity in the presence of hTERT, LT, ST, E6, E7 or RAS^V12. Although the work described herein made use of hTERT, LT, ST, E6, E7 and RAS^V12 as transforming genes, future studies can make use of a wide variety of cancer-associated alleles using this methodology in order to define the signaling networks that involve many oncogenes and tumor suppressors. Engineered cell lines with these genetic elements were used to screen 23,550 compounds, including 20,000 compounds from a combinatorial library, 1,990 compounds from the National Cancer Institute diversity collection, and 1,540 biologically active known compounds that were selected and purchased by Applicant and formatted into a screenable collection. […] Cell viability was measured using the dye calcein acetoxymethyl ester (calcein AM) (Wang et al., 1993, Hum. Immunol. 37, 264-270), which is a non-fluorescent compound that freely diffuses into cells. […]
Calcein acetoxylmethyl ester (AM) is a cell membrane-permeable, non-fluorescent compound that is cleaved by intracellular esterases to form the anionic, cell-impermeable, fluorescent compound calcein. […] Total fluorescence intensity in each well was recorded on a Packard Fusion platereader, and converted to a percent inhibition of signal by subtracting the instrument background and dividing by the average signal obtained when cells were not treated with any compound. […]
Mean RFU (relative fluorescence units) for untreated cells was calculated by averaging columns 1, 2, and 23 (wells with cells but lacking compounds). The calcein background was calculated by averaging column 24 (wells with calcein, but lacking cells). Percentage inhibition of each well was calculated as [1−(RFU−calcein control)/(untreated cell−calcein control)*100]. […]

BJ primary cells = test: Sensitization of BJ primary cells by co-treatment (calcein AM viability); assay type: cell-based, human; settings: BJ (or BJ-TERT) cells, simultaneous treatment with camptothecin
Source text: (A-C) Western blot of lysates from BJ, BJ-TERT, BJ-TERT/LT/ST, BJ-TERT/LT/ST/RAS^V12, BJ-TERT/LT/RAS^V12 and BJ-TERT/LT/RAS^V12/ST cells with an antibody directed against topoisomerase II (A) or TOPI (B, C). In panel (C), cells were transfected with a siRNA directed against TOPI, lamic A/C or with a control double strand DNA duplex of the same length (TOPI dsDNA). In each case, the blot was probed with an antibody against eIF-4E to identify differences in the amount of protein loaded. The relative amount is quantitated below each band. (D) A TOPI siRNA prevents cell death caused by camptothecin in engineered tumor cells. Cell number was determined after transfection with a siRNA directed against TOPI and treatment with the indicated concentrations of camptothecin. (E) Okadaic acid, an inhibitor of PP2A and other cellular phosphatases, sensitizes primary human cells to camptothecin. BJ primary cells were treated simultaneously with the indicated concentrations of both camptothecin and okadaic acid and the effect on calcein AM viability staining was determined. […] BJ primary cells were treated with the indicated concentrations of okadaic acid and the expression level of TOPI was determined by western blot. The relative amount is quantitated below each band.
The compounds in group (iii) are camptothecin (CPT) and a novel compound from a combinatorial library, which Applicants have named erastin, for eradicator of RAS and ST-expressing cells (FIG. 2). Efficient CPT-induced and erastin-induced cell death requires the presence of both ST and RAS^V12 (FIGS. 3 and 4 and Table 1). Although CPT and erastin have a similar genetic basis of selectivity, they have distinct mechanisms of action. CPT is partially active in cells lacking RB function (via expression of E7), whereas erastin is not, and CPT requires two days to cause death in BJ-TERT/LT/ST/RAS^V12 cells, while erastin is 100% effective within 18 hours (FIGS. 3 and 4). […]

COc1ccc(C[C@H]2C(=O)N[C@@H](C)C(=O)N(C)[C@@H]3C(=O)N(C)[C@@H](Cc4ccc(O)c(c4)Oc4ccc(cc4)[C@@H]3O)C(=O)N[C@H](C)C(=O)N[C@@H](C)C(=O)N2C)cc1 [Bouvardin]
Genetic basis of Selectivity (engineered cell lines): non-specific

CCOc1ccccc1-n1c(CN2CCNCC2)nc2ccccc2c1=O [Compound 5, 3-(2-ethoxyphenyl)-2-(piperazin-1-ylmethyl)quinazolin-4(3H)-one]
antitumor activity in HT-1080 xenografts (tumor volume) (HT-1080 xenografts): robust tumor regression
antitumor activity in PANC-1 xenografts (tumor volume) (PANC-1 xenografts): tumor regression

CCOc1ccccc1-n1c(C(C)N2CCNCC2)nc2ccccc2c1=O (stereo not shown) [Compound 6]
antitumor activity in HT-1080 xenografts (tumor volume) (HT-1080 xenografts): tumor growth inhibition
antitumor activity in PANC-1 xenografts (tumor volume) (PANC-1 xenografts): tumor growth inhibition

COc1cccc2c1C(=O)c1c(O)c3c(c(O)c1C2=O)C[C@@](O)(C(C)=O)C[C@@H]3O[C@H]1C[C@H](N)[C@H](O)[C@H](C)O1 [Daunorubicin, daunorubicin]
Genetic basis of Selectivity (engineered cell lines): TERT/RB

COc1cccc2c1C(=O)c1c(O)c3c(c(O)c1C2=O)C[C@@](O)(C(=O)CO)C[C@@H]3O[C@H]1C[C@H](N)[C@H](O)[C@H](C)O1 [Doxorubicin, doxorubicin]
Genetic basis of Selectivity (engineered cell lines): TERT/RB

CS[C@H]1SC[C@H]2C(=O)N(C)[C@@H](C(C)C)C(=O)OC[C@@H](NC(=O)c3cnc4ccccc4n3)C(=O)N[C@@H](C)C(=O)N(C)[C@@H]1C(=O)N(C)[C@@H](C(C)C)C(=O)OC[C@@H](NC(=O)c1cnc3ccccc3n1)C(=O)N[C@@H](C)C(=O)N2C [Echinomycin, echinomycin]
Genetic basis of Selectivity (engineered cell lines): non-specific

CCOc1ccccc1-n1c(C(C)N2CCN(C(=O)COc3ccc(Cl)cc3)CC2)nc2ccccc2c1=O (stereo not shown) [Erastin, erastin]
effectiveness of cell killing ([1]; BJ-TERT/LT/ST/RAS^V12 cells, within 18 hours): 100%
time to irreversible, non-apoptotic cell death ([1]; ST- and RAS^V12-dependent): 12 to 24 h

O=C1c2c(O)ccc(O)c2C(=O)c2c(NCCNCCO)ccc(NCCNCCO)c21 [Mitoxantrone, mitoxantrone]
Genetic basis of Selectivity (engineered cell lines): TERT/RB

NC(=O)c1cn([C@@H]2O[C@H](CO)[C@@H](O)[C@H]2O)c2ncnc(N)c12 [Sangivamycin, sangivamycin]
Genetic basis of Selectivity (engineered cell lines): non-specific

COc1cc([C@@H]2c3cc4c(cc3[C@H](O)[C@H]3COC(=O)[C@H]23)OCO4)cc(OC)c1OC [podophyllotoxin]
sensitization to camptothecin (BJ primary cells): does not sensitize BJ or BJ-TERT cells to CPT
